Results from ChEMBL document CHEMBL1142534, “Design, synthesis, biological evaluation and pharmacokinetics of bis(hydroxyphenyl) substituted azoles, thiophenes, benzenes, and aza-benzenes as potent and selective nonsteroidal inhibitors of 17beta-hydroxysteroid dehydrogenase type 1 (17beta-HSD1)” (J Med Chem, 2008).
Activity calls are given as the source filed them. No cut-off for these calls is given here.

Columns and labels:
[1] = target: T1, 17-beta-hydroxysteroid dehydrogenase type 1 (Homo sapiens) (UniProt P14061); test: (§1) Inhibition of human placental cytosolic 17beta-HSD1
T1 sequence (whole entry): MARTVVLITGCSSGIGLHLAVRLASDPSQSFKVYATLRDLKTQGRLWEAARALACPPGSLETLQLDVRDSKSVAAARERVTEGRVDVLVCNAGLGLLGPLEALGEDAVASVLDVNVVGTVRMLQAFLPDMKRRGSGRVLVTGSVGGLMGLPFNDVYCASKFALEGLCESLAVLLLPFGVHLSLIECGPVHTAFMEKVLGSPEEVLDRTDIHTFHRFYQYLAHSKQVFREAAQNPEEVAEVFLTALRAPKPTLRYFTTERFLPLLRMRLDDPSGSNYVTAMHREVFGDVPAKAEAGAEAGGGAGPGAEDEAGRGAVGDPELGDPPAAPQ

[2] = target: T2, 17-beta-hydroxysteroid dehydrogenase type 1 (Homo sapiens, UniProt P14061); test: as §1
T2 sequence (P14061 whole entry): T1 sequence (whole entry)

[3] = target: T3, Estrogen receptor (Homo sapiens) (UniProt P03372); test: Displacement of [2,4,6,7-3H]17beta-estradiol from human recombinant ERalpha receptor relative to 17-beta-estradiol
T3 sequence (whole entry): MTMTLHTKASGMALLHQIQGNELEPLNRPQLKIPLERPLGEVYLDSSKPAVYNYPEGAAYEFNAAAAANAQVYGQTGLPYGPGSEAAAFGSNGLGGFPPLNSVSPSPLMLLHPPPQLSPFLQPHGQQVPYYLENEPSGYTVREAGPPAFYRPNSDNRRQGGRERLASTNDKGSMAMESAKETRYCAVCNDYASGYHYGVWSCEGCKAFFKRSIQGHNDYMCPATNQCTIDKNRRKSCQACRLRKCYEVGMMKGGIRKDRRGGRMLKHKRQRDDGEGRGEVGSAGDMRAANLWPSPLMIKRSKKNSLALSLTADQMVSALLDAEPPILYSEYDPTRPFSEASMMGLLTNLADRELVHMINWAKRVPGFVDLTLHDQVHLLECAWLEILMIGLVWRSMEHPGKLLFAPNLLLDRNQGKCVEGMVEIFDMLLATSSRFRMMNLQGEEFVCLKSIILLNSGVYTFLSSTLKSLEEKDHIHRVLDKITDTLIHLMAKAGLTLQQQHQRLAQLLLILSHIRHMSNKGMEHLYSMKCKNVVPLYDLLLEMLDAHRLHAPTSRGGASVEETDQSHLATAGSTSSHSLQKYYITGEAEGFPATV

[4] = target: Estrogen receptor beta (Homo sapiens) (UniProt Q92731); test: Displacement of [2,4,6,7-3H]17beta-estradiol from human recombinant ERbeta receptor relative to 17-beta-estradiol
Chain of Estrogen receptor beta (Homo sapiens) (Q92731 whole entry): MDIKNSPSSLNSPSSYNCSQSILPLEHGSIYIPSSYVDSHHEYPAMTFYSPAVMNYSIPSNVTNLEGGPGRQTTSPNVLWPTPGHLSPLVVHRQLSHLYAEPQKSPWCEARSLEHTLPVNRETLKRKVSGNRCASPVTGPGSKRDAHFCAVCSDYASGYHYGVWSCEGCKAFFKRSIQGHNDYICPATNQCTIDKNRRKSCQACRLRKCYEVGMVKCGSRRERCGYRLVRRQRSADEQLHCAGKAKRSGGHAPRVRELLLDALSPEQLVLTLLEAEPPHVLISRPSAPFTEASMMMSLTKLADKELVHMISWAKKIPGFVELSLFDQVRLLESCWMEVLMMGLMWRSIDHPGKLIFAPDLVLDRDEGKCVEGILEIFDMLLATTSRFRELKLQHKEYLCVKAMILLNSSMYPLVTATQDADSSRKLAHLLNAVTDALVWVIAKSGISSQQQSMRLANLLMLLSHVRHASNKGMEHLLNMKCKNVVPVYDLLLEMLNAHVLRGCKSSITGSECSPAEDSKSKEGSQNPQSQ

T47D = test: Estrogenic activity in human ER expressing T47D cells assessed as stimulation of cell proliferation at 100 nM by MTT assay; assay type: functional, cell-based
Cytochrome P450 1A2 = target: T4, Cytochrome P450 1A2 (Homo sapiens, UniProt P05177); test: Inhibition of human hepatic CYP1A2; assay type: ADME
T4 sequence (P05177 whole entry): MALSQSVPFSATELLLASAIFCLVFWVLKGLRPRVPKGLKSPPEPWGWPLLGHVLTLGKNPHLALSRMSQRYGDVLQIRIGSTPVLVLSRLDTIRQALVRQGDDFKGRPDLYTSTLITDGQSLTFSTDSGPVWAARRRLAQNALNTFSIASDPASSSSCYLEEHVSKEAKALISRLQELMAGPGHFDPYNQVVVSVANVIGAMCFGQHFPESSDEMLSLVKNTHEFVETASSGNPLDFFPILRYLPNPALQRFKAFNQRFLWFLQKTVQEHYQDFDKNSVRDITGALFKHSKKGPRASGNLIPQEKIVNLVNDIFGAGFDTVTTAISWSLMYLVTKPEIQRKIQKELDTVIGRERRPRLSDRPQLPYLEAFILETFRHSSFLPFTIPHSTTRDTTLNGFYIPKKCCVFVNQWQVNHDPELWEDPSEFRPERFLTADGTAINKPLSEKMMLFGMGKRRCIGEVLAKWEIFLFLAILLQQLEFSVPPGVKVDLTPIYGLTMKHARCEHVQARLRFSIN

Cytochrome P450 2B6 = target: T5, Cytochrome P450 2B6 (Homo sapiens, UniProt P20813); test: Inhibition of human hepatic CYP2B6; assay type: ADME
T5 sequence (P20813 whole entry): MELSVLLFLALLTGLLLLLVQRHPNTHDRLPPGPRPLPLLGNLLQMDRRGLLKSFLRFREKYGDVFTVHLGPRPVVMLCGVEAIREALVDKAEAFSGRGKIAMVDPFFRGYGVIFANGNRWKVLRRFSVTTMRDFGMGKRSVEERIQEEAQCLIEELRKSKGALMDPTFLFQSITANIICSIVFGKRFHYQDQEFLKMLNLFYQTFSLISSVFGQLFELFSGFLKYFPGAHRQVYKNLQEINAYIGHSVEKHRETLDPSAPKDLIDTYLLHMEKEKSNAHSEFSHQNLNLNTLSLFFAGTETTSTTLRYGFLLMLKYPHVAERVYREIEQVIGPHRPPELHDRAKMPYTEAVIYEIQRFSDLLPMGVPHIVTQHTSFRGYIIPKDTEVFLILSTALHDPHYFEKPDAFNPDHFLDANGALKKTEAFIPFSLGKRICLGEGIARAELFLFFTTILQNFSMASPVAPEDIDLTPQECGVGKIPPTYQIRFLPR

Cytochrome P450 2C19 = Cytochrome P450 2C19 (Homo sapiens, UniProt P33261); test: Inhibition of human hepatic CYP2C19; assay type: ADME
Chain of Cytochrome P450 2C19 (P33261 whole entry): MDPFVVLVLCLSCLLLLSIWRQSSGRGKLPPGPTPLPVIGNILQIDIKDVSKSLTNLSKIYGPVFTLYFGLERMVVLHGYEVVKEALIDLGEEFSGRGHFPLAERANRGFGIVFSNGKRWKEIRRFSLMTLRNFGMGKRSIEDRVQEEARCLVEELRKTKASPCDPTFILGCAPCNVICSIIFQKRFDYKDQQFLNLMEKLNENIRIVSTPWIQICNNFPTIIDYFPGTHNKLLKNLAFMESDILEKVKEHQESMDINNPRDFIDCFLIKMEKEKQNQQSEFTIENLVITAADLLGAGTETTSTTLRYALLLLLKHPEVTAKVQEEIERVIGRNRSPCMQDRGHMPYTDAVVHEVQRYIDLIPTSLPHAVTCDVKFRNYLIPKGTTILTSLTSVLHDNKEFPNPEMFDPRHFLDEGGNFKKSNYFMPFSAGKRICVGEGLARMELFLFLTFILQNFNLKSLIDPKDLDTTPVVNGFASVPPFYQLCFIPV

Cytochrome P450 2D6 = Cytochrome P450 2D6 (Homo sapiens, UniProt P10635); test: Inhibition of human hepatic CYP2D6; assay type: ADME
Chain of Cytochrome P450 2D6 (P10635 whole entry): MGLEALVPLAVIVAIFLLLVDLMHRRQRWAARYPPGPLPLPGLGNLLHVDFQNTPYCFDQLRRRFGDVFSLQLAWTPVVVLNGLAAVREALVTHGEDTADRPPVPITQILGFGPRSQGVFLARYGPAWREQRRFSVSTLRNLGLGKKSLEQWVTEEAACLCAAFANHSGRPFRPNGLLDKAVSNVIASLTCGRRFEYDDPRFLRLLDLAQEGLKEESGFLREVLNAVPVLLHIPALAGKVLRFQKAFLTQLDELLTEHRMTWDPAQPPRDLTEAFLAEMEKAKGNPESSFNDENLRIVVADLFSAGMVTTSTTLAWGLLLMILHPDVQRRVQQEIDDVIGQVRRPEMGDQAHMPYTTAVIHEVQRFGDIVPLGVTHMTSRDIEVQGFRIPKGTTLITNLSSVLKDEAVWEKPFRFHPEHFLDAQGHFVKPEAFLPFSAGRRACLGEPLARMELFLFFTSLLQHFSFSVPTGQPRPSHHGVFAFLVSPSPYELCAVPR

in vitro [5] = details: Sprague-Dawley, rat, liver microsomes
in vitro [6] = details: Sprague-Dawley, rat, liver microsomes; remark: listed apart in the source
[7] = Cmax in Wistar rat at 10 mg/kg, po by cassette dosing; assay type: ADME, organism-based; set-up: dose 10 mg/kg, route oral; details: in vivo
Rattus norvegicus [8] = test: Clast in Wistar rat at 10 mg/kg, po by cassette dosing; assay type: ADME, organism-based; set-up: dose 10 mg/kg, route oral; details: in vivo
[9] = Tmax in Wistar rat at 10 mg/kg, po by cassette dosing; assay type: ADME, organism-based; set-up: dose 10 mg/kg, route oral; details: in vivo
Rattus norvegicus [10] = test: Tlast in Wistar rat at 10 mg/kg, po by cassette dosing; assay type: ADME, organism-based; set-up: dose 10 mg/kg, route oral; details: in vivo
[11] = Half life in Wistar rat at 10 mg/kg, po by cassette dosing; assay type: ADME, organism-based; set-up: dose 10 mg/kg, route oral; details: in vivo, read-out: beta t1/2 (converted)
Rattus norvegicus [12] = test: AUC (0 to Tlast) life in Wistar rat at 10 mg/kg, po by cassette dosing; assay type: ADME, organism-based, Plasma; set-up: dose 10 mg/kg, route oral; details: in vivo
in vitro [13] = details: human, Caco-2
Description: Apparent permeability across human Caco-2 cells at 50 uM

## Oc1ccc(-c2cnc(-c3cccc(O)c3)[nH]2)cc1
[1]
  Activity: inactive

## Oc1ccc(-c2cnc(-c3ccc(O)cc3)s2)cc1
[1]
  Activity: inactive

## Oc1ccc(-c2cccc(-c3ccc(O)cc3)c2)cc1
[2]
  IC50: > 1000 nM

## Oc1ccc(-c2csc(-c3cccc(O)c3)c2)cc1
[2]
  IC50: 77 nM
[3]
  RBA: 0.01%
[4]
  RBA: 0.1%

## Oc1cccc(-c2cn(-c3cccc(O)c3)nn2)c1
[2]
  IC50: > 5000 nM

## Oc1ccc(-c2ccsc2-c2cccc(O)c2)cc1
[2]
  IC50: > 1000 nM

## Cn1nc(-c2ccc(O)cc2)nc1-c1cccc(O)c1
[1]
  Activity: inactive

## Oc1cccc(-c2cc(-c3ccccc3)cs2)c1
[2]
  IC50: > 5000 nM

## Oc1ccc(-c2ncc(-c3cccc(O)c3)s2)cc1
[2]
  IC50: > 1000 nM

## Oc1ccc(-c2nc(-c3cccc(O)c3)cs2)cc1
[2]
  IC50: > 5000 nM

## Oc1ccc(-c2ccc(-c3ccccc3)s2)cc1
[1]
  Activity: inactive

## Cn1nc(-c2cccc(O)c2)nc1-c1ccc(O)cc1
[1]
  Activity: inactive

## Oc1cccc(-c2nsc(-c3cccc(O)c3)n2)c1
[2]
  IC50: 169 nM

## Oc1ccc(-c2cccc(-c3cccc(O)c3)c2)cc1
[2]
  IC50: > 1000 nM

## Oc1cccc(-c2cnc(-c3cccc(O)c3)s2)c1
[2]
  IC50: 243 nM
T47D
  Activity: inactive
Cytochrome P450 1A2
  IC50: > 4000 nM
Cytochrome P450 2B6
  IC50: > 4000 nM
Cytochrome P450 2C19
  IC50: > 4000 nM
Cytochrome P450 2D6
  IC50: > 4000 nM
In vitro [5]
  half-life at 1 µM: 0.21 h
In vitro [6]
  microsomal CLint at 1 µM: 367 µL/min/mg

## Oc1ccc(-c2ccsc2-c2ccc(O)cc2)cc1
[1]
  Activity: inactive

## Cn1nc(-c2cccc(O)c2)nc1-c1cccc(O)c1
[1]
  Activity: inactive

## Oc1ccc(-c2cnc(-c3cccc(O)c3)s2)cc1
[3]
  RBA: < 0.01%
[4]
  RBA: 0.01%
[7]
  Cmax: 7.8 ng/mL
Rattus norvegicus [8]
  Cz: 6.6 ng/mL
[9]
  Tmax: 8 h
Rattus norvegicus [10]
  tz: 10 h
[11]
  half-life: 1.5 h
Rattus norvegicus [12]
  AUC: 99.2 ng·h/mL
In vitro [13]
  Papp at 50 µM: 7.8 ×10⁻⁶ cm/s

## Oc1cccc(-c2nnc(-c3cccc(O)c3)nn2)c1
[7]
  Cmax: 106 ng/mL
Rattus norvegicus [8]
  Cz: 54 ng/mL
[9]
  Tmax: 3 h
Rattus norvegicus [10]
  tz: 10 h
[11]
  half-life: 1.2 h
Rattus norvegicus [12]
  AUC: 1200 ng·h/mL
